# Test results as given in patent US11260049B2, “TRPV4 antagonists” (GlaxoSmithKline Intellectual Property (No. 2) Limited, priority 2016, dated 2022).
# Target: human TRPV4 (Homo sapiens (Human), UniProt Q9HBA0)
# Test: FLIPR assay for hTRPV4 expressed in BHK cells
# Type: cell-based
# Details: inhibition of Agonist Compound (EC80)-induced calcium signal; BHK/AC9 cells expressing human TRPV4; read-out: IC50
# Procedure: FLIPR Assay for hTRPV4 Expressed in BHK Cells:
# TRPV4 channel activation results in an influx of divalent and monovalent cations including calcium. The resulting changes in intracellular calcium were monitored using a calcium specific fluorescent dye Fluo-4 (MDS Analytical Technologies). BHK/AC9 cells transduced with BacMam virus expressing the human TRPV4 gene at a MOI of 78 were plated in a 384 well poly-D lysine coated plate (15,000 cells/well in 50 μL culture medium containing DMEM/F12 with 15 mM HEPES, 10% FBS, 1% Penicillin-Streptomycin and 1% L-glutamine). Cells were incubated for 24 hours at 37° C. and 5% CO2. Culture medium was then aspirated using a Tecan plate-washer and replaced with 20 μL/well of dye loading buffer: HBSS, 500 μM Brilliant Black (MDS Analytical Technologies), and 2 μM Fluo-4 AM. Dye loaded plates were then incubated in the dark at room temperature for 1˜1.5 hours.
# Chain of human TRPV4 (Q9HBA0 whole entry): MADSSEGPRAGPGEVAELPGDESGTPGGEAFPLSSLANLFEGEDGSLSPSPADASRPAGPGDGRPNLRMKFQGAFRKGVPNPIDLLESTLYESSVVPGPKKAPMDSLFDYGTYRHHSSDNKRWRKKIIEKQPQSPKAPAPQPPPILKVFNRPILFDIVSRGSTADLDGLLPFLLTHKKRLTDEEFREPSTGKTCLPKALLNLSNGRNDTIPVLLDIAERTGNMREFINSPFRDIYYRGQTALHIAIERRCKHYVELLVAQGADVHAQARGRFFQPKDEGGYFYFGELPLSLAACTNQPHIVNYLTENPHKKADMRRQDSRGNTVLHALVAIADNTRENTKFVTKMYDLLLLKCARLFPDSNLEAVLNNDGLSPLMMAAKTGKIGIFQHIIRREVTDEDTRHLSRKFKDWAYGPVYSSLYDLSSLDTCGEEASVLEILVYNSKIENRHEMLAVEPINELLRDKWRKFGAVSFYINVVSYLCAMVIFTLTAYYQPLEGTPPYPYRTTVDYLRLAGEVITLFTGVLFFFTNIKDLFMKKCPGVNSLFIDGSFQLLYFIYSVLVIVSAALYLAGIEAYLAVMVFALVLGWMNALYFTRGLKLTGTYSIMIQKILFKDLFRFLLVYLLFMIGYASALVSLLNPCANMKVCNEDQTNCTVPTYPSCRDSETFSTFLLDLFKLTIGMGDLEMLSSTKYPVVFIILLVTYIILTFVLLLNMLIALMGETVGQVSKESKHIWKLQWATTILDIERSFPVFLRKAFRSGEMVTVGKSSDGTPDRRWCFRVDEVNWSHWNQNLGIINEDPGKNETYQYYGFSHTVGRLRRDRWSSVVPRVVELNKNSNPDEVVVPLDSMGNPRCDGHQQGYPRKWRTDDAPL
row,Structure (SMILES),IC50 [nM]
1,"N#Cc1ccc(S(=O)(=O)[C@H]2CN(S(=O)(=O)c3ccc(F)cc3C(F)(F)F)C[C@@]2(O)CO)cc1 [Example 29, 4-(((3S,4R)-1-((4-fluoro-2-(trifluoromethyl)phenyl)sulfonyl)-4-hydroxy-4-(hydroxymethyl)pyrrolidin-3-yl)sulfonyl)benzonitrile]",0.1 to 10
2,"N#Cc1ccc(S(=O)(=O)[C@H]2CN(S(=O)(=O)c3ccc(Br)cc3C(F)(F)F)C[C@@]2(O)CO)cc1 [Example 30, 4-(((3S,4R)-1-((4-bromo-2-(trifluoromethyl)phenyl)sulfonyl)-4-hydroxy-4-(hydroxymethyl)pyrrolidin-3-yl)sulfonyl)benzonitrile]",0.1 to 10
3,"COc1ccc(S(=O)(=O)N2C[C@H](S(=O)(=O)c3ccc(C#N)cc3)[C@](O)(CO)C2)c(C(F)(F)F)c1 [Example 31, 4-(((3S,4R)-4-hydroxy-4-(hydroxymethyl)-1-((4-methoxy-2-(trifluoromethyl)phenyl)sulfonyl)pyrrolidin-3-yl)sulfonyl)benzonitrile]",10 to 100
4,"N#Cc1ccc(S(=O)(=O)[C@H]2CN(S(=O)(=O)c3ccc(C(F)(F)F)cc3Br)C[C@@]2(O)CO)cc1 [Example 32, 4-(((3S,4R)-1-((2-bromo-4-(trifluoromethyl)phenyl)sulfonyl)-4-hydroxy-4-(hydroxymethyl)pyrrolidin-3-yl)sulfonyl)benzonitrile]",10 to 100
5,"N#Cc1ccc(S(=O)(=O)[C@H]2CN(S(=O)(=O)c3ccccc3Br)C[C@@]2(O)CO)cc1 [Example 33, 4-(((3S,4R)-1-((2-bromophenyl)sulfonyl)-4-hydroxy-4-(hydroxymethyl)pyrrolidin-3-yl)sulfonyl)benzonitrile]",10 to 100
6,"N#Cc1ccc(S(=O)(=O)[C@H]2CN(S(=O)(=O)c3ccc(Br)cc3Cl)C[C@@]2(O)CO)cc1 [Example 34, 4-(((3S,4R)-1-((4-bromo-2-chlorophenyl)sulfonyl)-4-hydroxy-4-(hydroxymethyl)pyrrolidin-3-yl)sulfonyl)benzonitrile]",0.1 to 10
7,"COc1cc(C#N)ccc1S(=O)(=O)N1C[C@H](S(=O)(=O)c2ccc(Cl)cc2)[C@](O)(CO)C1 [Example 35, 4-(((3R,4S)-4-((4-chlorophenyl)sulfonyl)-3-hydroxy-3-(hydroxymethyl)pyrrolidin-1-yl)sulfonyl)-3-methoxybenzonitrile]",0.1 to 10
8,"N#Cc1ccc(S(=O)(=O)[C@H]2CN(S(=O)(=O)c3ccc(C(F)(F)F)cc3F)C[C@@]2(O)CO)cc1 [Example 36, 4-(((3S,4R)-1-((2-fluoro-4-(trifluoromethyl)phenyl)sulfonyl)-4-hydroxy-4-(hydroxymethyl)pyrrolidin-3-yl)sulfonyl)benzonitrile]",10 to 100
9,"O=S(=O)(c1ccc(Cl)cc1)[C@H]1CN(S(=O)(=O)c2ccc(C(F)F)cc2Cl)C[C@@]1(O)CO [Example 37, (3R,4S)-1-((2-chloro-4-(difluoromethyl)phenyl)sulfonyl)-4-((4-chlorophenyl)sulfonyl)-3-(hydroxymethyl)pyrrolidin-3-ol]",10 to 100
10,"N#Cc1ccc(S(=O)(=O)N2C[C@H](S(=O)(=O)c3ccc(Cl)cc3)[C@](O)(CO)C2)c(Br)c1 [Example 38, 3-bromo-4-(((3R,4S)-4-((4-chlorophenyl)sulfonyl)-3-hydroxy-3-(hydroxymethyl)pyrrolidin-1-yl)sulfonyl)benzonitrile]",0.1 to 10
11,"N#Cc1ccc(S(=O)(=O)N2C[C@H](S(=O)(=O)c3ccc(C(F)(F)F)nc3)[C@](O)(CO)C2)c(Br)c1 [Example 39, 3-bromo-4-(((3R,4S)-3-hydroxy-3-(hydroxymethyl)-4-((6-(trifluoromethyl)pyridin-3-yl)sulfonyl)pyrrolidin-1-yl)sulfonyl)benzonitrile]",10 to 100
12,"N#Cc1cc(Cl)ccc1S(=O)(=O)N1C[C@H](S(=O)(=O)c2ccc(C(F)(F)F)nc2)[C@](O)(CO)C1 [Example 40, 5-chloro-2-(((3R,4S)-3-hydroxy-3-(hydroxymethyl)-4-((6-(trifluoromethyl)pyridin-3-yl)sulfonyl)pyrrolidin-1-yl)sulfonyl)benzonitrile]",10 to 100
13,"N#Cc1ccc(S(=O)(=O)[C@H]2CN(S(=O)(=O)c3ccccc3C(F)(F)F)C[C@@]2(O)CO)cc1 [Example 41, 4-(((3S,4R)-4-hydroxy-4-(hydroxymethyl)-1-((2-(trifluoromethyl)phenyl)sulfonyl)pyrrolidin-3-yl)sulfonyl)benzonitrile]",10 to 100
14,"N#Cc1ccc(S(=O)(=O)[C@H]2CN(S(=O)(=O)c3ccc(C(F)F)cc3Cl)C[C@@]2(O)CO)cc1 [Example 42, 4-(((3S,4R)-1-((2-chloro-4-(difluoromethyl)phenyl)sulfonyl)-4-hydroxy-4-(hydroxymethyl)pyrrolidin-3-yl)sulfonyl)benzonitrile]",10 to 100
15,"O=S(=O)(c1ccc(Cl)cc1)[C@H]1CN(S(=O)(=O)c2ccc(CF)cc2Cl)C[C@@]1(O)CO [Example 43, (3R,4S)-1-((2-chloro-4-(fluoromethyl)phenyl)sulfonyl)-4-((4-chlorophenyl)sulfonyl)-3-(hydroxymethyl)pyrrolidin-3-ol]",10 to 100
16,"N#Cc1ccc(S(=O)(=O)[C@H]2CN(S(=O)(=O)c3ccc(CF)cc3Cl)C[C@@]2(O)CO)cc1 [Example 44, 4-(((3S,4R)-1-((2-chloro-4-(fluoromethyl)phenyl)sulfonyl)-4-hydroxy-4-(hydroxymethyl)pyrrolidin-3-yl)sulfonyl)benzonitrile]",10 to 100
17,"N#Cc1ccc(S(=O)(=O)[C@H]2CN(S(=O)(=O)c3ccc(C#N)cc3Cl)C[C@@]2(O)CO)cc1 [Example 45, 3-chloro-4-(((3R,4S)-4-((4-cyanophenyl)sulfonyl)-3-hydroxy-3-(hydroxymethyl)pyrrolidin-1-yl)sulfonyl)benzonitrile]",0.1 to 10
18,"CCc1cc(C#N)ccc1S(=O)(=O)N1C[C@H](S(=O)(=O)c2ccc(Cl)cc2)[C@](O)(CO)C1 [Example 46, 4-(((3R,4S)-4-((4-chlorophenyl)sulfonyl)-3-hydroxy-3-(hydroxymethyl)pyrrolidin-1-yl)sulfonyl)-3-ethylbenzonitrile]",10 to 100
19,"N#Cc1ccccc1S(=O)(=O)N1C[C@H](S(=O)(=O)c2ccc(Cl)cc2)[C@](O)(CO)C1 [Example 47, 2-(((3R,4S)-4-((4-chlorophenyl)sulfonyl)-3-hydroxy-3-(hydroxymethyl)pyrrolidin-1-yl)sulfonyl)benzonitrile]",10 to 100
20,"N#Cc1ccc(S(=O)(=O)N2C[C@H](S(=O)(=O)c3ccc(Cl)cc3)[C@](O)(CO)C2)c(C(F)F)c1 [Example 48, 4-(((3R,4S)-4-((4-chlorophenyl)sulfonyl)-3-hydroxy-3-(hydroxymethyl)pyrrolidin-1-yl)sulfonyl)-3-(difluoromethyl)benzonitrile]",0.1 to 10
21,"CCOc1cc(C#N)ccc1S(=O)(=O)N1C[C@H](S(=O)(=O)c2ccc(Cl)cc2)[C@](O)(CO)C1 [Example 49, 4-(((3R,4S)-4-((4-chlorophenyl)sulfonyl)-3-hydroxy-3-(hydroxymethyl)pyrrolidin-1-yl)sulfonyl)-3-ethoxybenzonitrile]",10 to 100
22,"N#Cc1ccc(S(=O)(=O)N2C[C@H](S(=O)(=O)c3ccc(Cl)cc3)[C@](O)(CO)C2)c(OC2CC2)c1 [Example 50, 4-(((3R,4S)-4-((4-chlorophenyl)sulfonyl)-3-hydroxy-3-(hydroxymethyl)pyrrolidin-1-yl)sulfonyl)-3-cyclopropoxybenzonitrile]",10 to 100
23,"COc1cc(Cl)ccc1S(=O)(=O)N1C[C@H](S(=O)(=O)c2ccc(C#N)cc2)[C@](O)(CO)C1 [Example 51, 4-(((3S,4R)-1-((4-chloro-2-methoxyphenyl)sulfonyl)-4-hydroxy-4-(hydroxymethyl)pyrrolidin-3-yl)sulfonyl)benzonitrile]",10 to 100
24,"COc1cc(Br)ccc1S(=O)(=O)N1C[C@H](S(=O)(=O)c2ccc(C#N)cc2)[C@](O)(CO)C1 [Example 52, 4-(((3S,4R)-1-((4-bromo-2-methoxyphenyl)sulfonyl)-4-hydroxy-4-(hydroxymethyl)pyrrolidin-3-yl)sulfonyl)benzonitrile]",10 to 100
25,"N#Cc1ccccc1S(=O)(=O)N1C[C@H](S(=O)(=O)c2ccc(C(F)(F)F)cc2)[C@](O)(CO)C1 [Example 53, 2-(((3R,4S)-3-hydroxy-3-(hydroxymethyl)-4-((4-(trifluoromethyl)phenyl)sulfonyl)pyrrolidin-1-yl)sulfonyl)benzonitrile]",10 to 100
26,"N#Cc1ccc(S(=O)(=O)N2C[C@H](S(=O)(=O)c3ccc(C(F)(F)F)cc3)[C@](O)(CO)C2)c(Cl)c1 [Example 54, 3-chloro-4-(((3R,4S)-3-hydroxy-3-(hydroxymethyl)-4-((4-(trifluoromethyl)phenyl)sulfonyl)pyrrolidin-1-yl)sulfonyl)benzonitrile]",0.1 to 10
27,"N#Cc1ccc(S(=O)(=O)N2C[C@H](S(=O)(=O)c3ccc(C(F)(F)F)cc3)[C@](O)(CO)C2)c(C(F)F)c1 [Example 55, 3-(difluoromethyl)-4-(((3R,4S)-3-hydroxy-3-(hydroxymethyl)-4-((4-(trifluoromethyl)phenyl)sulfonyl)pyrrolidin-1-yl)sulfonyl)benzonitrile]",0.1 to 10
28,"COc1cc(C#N)ccc1S(=O)(=O)N1C[C@H](S(=O)(=O)c2ccc(C(F)(F)F)cc2)[C@](O)(CO)C1 [Example 56, 4-(((3R,4S)-3-hydroxy-3-(hydroxymethyl)-4-((4-(trifluoromethyl)phenyl)sulfonyl)pyrrolidin-1-yl)sulfonyl)-3-methoxybenzonitrile]",10 to 100
